Read-outs that look alike come from different tables or passages of the source.
Experiments:
recombinant PfCLK3 = recombinant PfCLK3 (Plasmodium falciparum, UniProt Q8IIL5); test: TR-FRET kinase assay at Km ATP; format: biochemical; conditions: 2 hour incubation, errors SD, N ≥ 3, * concentration response curve not complete
Procedure: All compounds were then evaluated against recombinant PfCLK3 using a TR-FRET kinase assay (Fig. 5). […]
Time Resolved Förster Resonance Energy Transfer (TR-FRET) Assay
Tr-FRET technology was used to determine kinase activity and Km ATP before profiling compounds. An 11-point half-log serial dilution of each test compound was prepared in 100% DMSO at 100X final test concentration. The dilution series were dispensed onto assay plates with liquid handling machinery using positive displacement. The final DMSO concentration in the assay was 1%. To obtain IC 50 values, full length recombinant PfCLK3 was prepared in 1X assay buffer (50 mM Hepes, 10 mM MgCl2, 1 mM EGTA, 0.01% Tween20, 2 mM TCEP) at a 2X concentration and incubated with compounds for 15 minutes at room temperature before addition of ULight-labelled peptide substrate (MBP) with Km ATP (at 2X concentration). The reaction was centrifuged and incubated for 2 hr at 37 °C. To stop the reaction, 1X Lance detection buffer was added with 1 nM Eu-labelled anti-MBP and 10 mM EDTA, and the reaction was incubated in the dark for 2 hr at room temperature to allow detection to take place. Plate output was read on a Pherastar FSX and data analysed in Graphpad Prism to a 4-parameter curve fit. […]

[1] = tested on: 3D7 Plasmodium falciparum parasites; test: Ex vivo P. falciparum (3D7) inhibition assay; format: cell-based; conditions: 3D7, Pf3D7 parasites, 72 hours, errors SD
Procedure: Compounds 4, 5, 8 and 9 were then assessed against 3D7 Plasmodium falciparum parasites (Fig. 6). […]
P. falciparum (3D7) culture and synchronisation.
P. falciparum cultures were maintained in RPMI-1640 media (Invitrogen) supplemented with 0.2% sodium bicarbonate, 0.5% Albumax II, 2.0 mM L-glutamine (Sigma) and 10 mg/L gentamycin. For continuous culture, the parasites were maintained at 4% haematocrit in human erythrocytes from 0+ blood donors and between 0.5 - 3% parasitaemia in an incubator at 37 °C, 5% carbon dioxide (CO 2), 5% oxygen (O 2) and 90% nitrogen (N 2). To obtain highly synchronous ring stage parasites for assays, cultures were double synchronised using Percoll and Sorbitol synchronisation. First, highly segmented schizonts were enriched by centrifugation on a 70% Percoll (GE Healthcare) cushion gradient. The Schizont pellet was collected and washed twice before fresh erythrocytes were added to a final haematocrit of 4%, and incubated for about 1-2 hours shaking continuously to allow merozoites egress and re-invasion of new erythrocytes. Residual schizonts were then removed by a second Percoll purification followed by treating the ring pellet with sorbitol to generate highly synchronous 1-2 hours old ring-stage parasites.
Ex vivo P. Falciparum (3D7) inhibition assay.
To determine the IC 50 of the molecules in parasites (P. falciparum 3D7) ex vivo, the molecules were diluted 1 in 3 from a starting concentration of 100 μM for 12 dilution points in triplicate. 50 μL of freshly diluted drugs, at twice the required final concentrations were aliquoted into black 96-well plates. To the compound plates, 50 μL of parasites prepared at 8% haematocrit at a parasitaemia (0.3 - 0.5%) were added and mixed by pipetting up and down several times giving a final culture volume of 100 μL at the required compound concentration (top concentration of 100 μM) and 4% haematocrit. To the ‘no compound’ control, growth media was added and uninfected erythrocytes were included on the plate as blank. The outer wells were filled with media to reduce evaporation from the experimental wells and the plates incubated for 72 hours (±2 hours) to allow the parasites sufficient time to re-invade before they are collected and frozen. For cellular washout studies, compound media was exchanged for compound-free media after 6 hours, and the parasites incubated for a […]

human (h)CLK2 = human (h)CLK2 (Homo sapiens, UniProt P49760); test: Selectivity kinase assay against hCLK2; format: biochemical; conditions: for IC50: errors SD, N ≥ 3
Source text: Given this work aims to target a conserved residue, selectivity must be derived from the reversible ligand rather than the covalent interaction.

[2] = N ≥ 3, read-out: pEC50 (3D7) (converted)

Sequence of human (h)CLK2 (P49760 whole entry): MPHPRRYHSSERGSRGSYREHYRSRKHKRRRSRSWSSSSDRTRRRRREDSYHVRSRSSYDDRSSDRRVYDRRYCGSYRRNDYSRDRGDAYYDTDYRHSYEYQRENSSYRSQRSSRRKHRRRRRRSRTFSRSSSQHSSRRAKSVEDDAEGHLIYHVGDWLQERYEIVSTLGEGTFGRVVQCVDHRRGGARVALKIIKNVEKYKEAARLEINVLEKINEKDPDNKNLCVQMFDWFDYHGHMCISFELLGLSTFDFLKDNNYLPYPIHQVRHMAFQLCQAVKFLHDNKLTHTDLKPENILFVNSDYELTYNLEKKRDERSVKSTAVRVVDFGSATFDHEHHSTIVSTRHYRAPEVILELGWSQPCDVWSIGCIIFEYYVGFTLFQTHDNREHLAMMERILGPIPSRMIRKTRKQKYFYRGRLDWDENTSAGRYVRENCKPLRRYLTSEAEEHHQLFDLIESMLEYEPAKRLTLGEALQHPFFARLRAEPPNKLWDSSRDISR
Sequence of recombinant PfCLK3 (Q8IIL5 entry or part of it): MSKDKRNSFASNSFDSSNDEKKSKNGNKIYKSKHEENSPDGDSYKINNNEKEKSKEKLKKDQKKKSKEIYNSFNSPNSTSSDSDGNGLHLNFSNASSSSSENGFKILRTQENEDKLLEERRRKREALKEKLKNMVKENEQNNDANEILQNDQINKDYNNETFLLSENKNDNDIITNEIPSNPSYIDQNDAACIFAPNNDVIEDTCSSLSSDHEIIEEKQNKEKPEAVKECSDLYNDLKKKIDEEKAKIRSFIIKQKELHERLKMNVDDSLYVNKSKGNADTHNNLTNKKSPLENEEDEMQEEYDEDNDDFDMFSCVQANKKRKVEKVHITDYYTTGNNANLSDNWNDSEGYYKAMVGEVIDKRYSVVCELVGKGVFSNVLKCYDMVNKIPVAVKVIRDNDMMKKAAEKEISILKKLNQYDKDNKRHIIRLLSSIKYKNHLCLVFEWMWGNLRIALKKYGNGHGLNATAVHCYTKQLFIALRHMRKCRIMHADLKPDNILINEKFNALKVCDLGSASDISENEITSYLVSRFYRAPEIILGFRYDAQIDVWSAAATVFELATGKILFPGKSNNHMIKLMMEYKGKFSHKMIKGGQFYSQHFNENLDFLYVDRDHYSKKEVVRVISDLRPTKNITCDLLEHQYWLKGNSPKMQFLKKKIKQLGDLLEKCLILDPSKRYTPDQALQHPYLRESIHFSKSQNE

| Compound | IC50 (recombinant PfCLK3; IC50 (apparent), Km ATP (5 μM)) [nM] | IC50 (recombinant PfCLK3; pIC50, Km ATP (5 μM)) [nM] | EC50 ([1]; N ≥ 3, read-out: EC50 (3D7)) [nM] | EC50 [1, 2] [nM] | IC50 (human (h)CLK2; read-out: IC50 (hCLK2)) [nM] | IC50 (human (h)CLK2; read-out: pIC50 (hCLK2) (converted)) [nM] | fold more potent against hCLK2 than parent S1 (human (h)CLK2; relative to S1) [fold] |
| --- | --- | --- | --- | --- | --- | --- | --- |
| CCN(CC)Cc1ccc(OC)c(-c2cc3c(-c4ccc(O)c(C=O)c4)ccnc3[nH]2)c1 [Compound 4] | 16 ± 9 | 16.2 | 6350 ± 2310 | 6310 | 104 ± 37 |  |  |
| C#Cc1ccc(-c2c[nH]c3ncc(-c4cc(CN(CC)CC)ccc4OC)cc23)cc1C=O [Compound 9] | 16 ± 4 | 16.6 | 4350 ± 500 | 4370 |  | 16.6 | 31 |

— paper PMC12164071, “Lysine targeting covalent inhibitors of malarial kinase PfCLK3” (RSC Medicinal Chemistry, 2025)
